Key:
[1] = Critical micelle concentration by fluorescence dye diphenylhexatriene (DPH); assay type: physicochemical; conditions: DPH fluorescence
Description: A method of measuring the CMC is not particularly limited and may be any method generally known in the art. For example, the CMC may be measured according to a fluorescence staining method using diphenylhexatriene (DPH).
(§1) Specifically, critical micelle concentrations (CMCs) were measured using a fluorescence dye, diphenylhexatriene (DPH), and hydrodynamic radii (Rh) of micelles formed of each compound (1.0 wt %) were measured by a dynamic light scattering (DLS) experiment. Measured results are shown in Table 1 in comparison with values of DDM as an existing amphipathic molecule (detergent).

[2] = Hydrodynamic radius and size distribution of micelles by dynamic light scattering (DLS); assay type: physicochemical; conditions: compound 1.0 wt %
Description: A method of measuring the radius of a micelle is not particularly limited and may be any method generally known in the art. For example, the radius may be measured by a dynamic light scattering (DLS) experiment.
as §1
Meanwhile, size distributions of the micelles formed by RGAs and RMAs were measured using DLS.

[3] = target: T1, human β2 adrenergic receptor (β2AR) (Homo sapiens, UniProt P07550); experiment: β2AR stability, [3H]-dihydroalprenolol (DHA) ligand binding assay; assay type: biochemical; conditions: for maintaining the ligand binding characteristic of the receptor compared to DDM: 0 hour, CMC+0.2 wt %, [3H]-DHA
T1 construct: made in house
T1 sequence (P07550 whole entry): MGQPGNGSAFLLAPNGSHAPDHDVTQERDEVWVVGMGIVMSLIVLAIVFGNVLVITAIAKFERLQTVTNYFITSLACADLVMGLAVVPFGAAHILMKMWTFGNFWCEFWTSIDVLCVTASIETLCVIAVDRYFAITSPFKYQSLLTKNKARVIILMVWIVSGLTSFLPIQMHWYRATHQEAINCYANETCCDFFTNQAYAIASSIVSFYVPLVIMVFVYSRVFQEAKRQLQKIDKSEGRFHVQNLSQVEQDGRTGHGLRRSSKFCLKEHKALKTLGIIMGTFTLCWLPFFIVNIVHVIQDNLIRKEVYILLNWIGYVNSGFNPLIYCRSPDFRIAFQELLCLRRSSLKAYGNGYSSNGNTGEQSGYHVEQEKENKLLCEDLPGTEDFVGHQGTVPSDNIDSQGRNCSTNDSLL
Description: (§2) FIGS. 10A and 10B illustrate a result of measuring the effect of RGAs on the stability of β2AR after (a) 0 hour and (b) over time. Protein-ligand binding characteristics were measured via ligand binding assay using [^3H]-dihydroalprenolol (DHA), and the measurement was carried out by sampling a protein sample at regular intervals during 2 days of storage at room temperature.
as §2, with “12A” for “10A”, “12B” for “10B”, “RMAs” for “RGAs”
An experiment was carried out to measure the structural stability of a human (32 adrenergic receptor (β2AR) and a G protein-coupled receptor (GPCR) caused by RGAs and RMAs. That is, a receptor purified with DDM was diluted with a buffer solution containing only each RGA and RMA without cholesteryl hemisuccinate (CHS) or a buffer solution containing CHS and DDM. The final concentration of the compound was CMC+0.2 wt %, and the ligand binding characteristic of the receptor was measured using [^3H]-dihydroalprenolol ([^3H]-DHA) binding.
Specifically, radioligand binding assay was carried out using the following method. β2AR was purified using 0.1% DDM according to the method described in a paper (Science, 2007, 318, 1266-1273.) written by D. M. Rosenbaum et al. and finally concentrated to about 10 mg/ml (about 200 μM). The β2AR purified with DDM was used to prepare a master binding mixture containing 10 nM [^3H]-dihydroalprenolol (DHA) supplemented with 0.5 mg/ml BSA in a 0.2% amphipathic compound (DDM, RGAs or RMAs). The receptor purified with DDM, RGAs or RMAs was incubated with 10 nM [^3H]-DHA at room temperature for 30 minutes. The mixture was loaded into a G-50 column, the flow-through was collected with 1 ml of a binding buffer (20 mM HEPES pH 7.5, 100 mM NaCl, supplemented with 0.5 mg/ml BSA and 20×CMC individual amphipathic compound, and the G-50 column was further filled with 15 ml of a scintillation fluid. Receptor-bound [^3H]-DHA was measured with a scintillation counter (Beckman). The binding capacity of [^3H]-DHA was measured and shown in a column graph. Each experiment was performed in triplicate.

[4] = system: leucine transporter (LeuT); experiment: LeuT structural stability, [3H]-Leu binding by scintillation proximity assay (SPA); assay type: biochemical, Aquifex aeolicus
Description: (§3) FIGS. 7A and 7B are a set of graphs illustrating a result of measuring the structural stability of a leucine transporter (LeuT) solubilized in RGAs or DDM evaluated at CMC+0.04 wt % (a) or CMC+0.2 wt % (b). Protein stability was determined by measuring the ability of the transporter to bind a radiolabeled ligand ([3H]-Leu) via scintillation proximity assay (SPA). The substrate binding ability of LeuT was measured at regular intervals during 10 days of incubation of the protein at room temperature in the presence of individual amphipathic compounds.
as §3, with “8A” for “7A”, “8B” for “7B”, “RMAs” for “RGAs”
An experiment was carried out to measure the structural stability of a leucine transporter (LeuT) caused by RGAs and RMAs. The concentrations of individual amphipathic compounds were (a) CMC+0.04 wt % or (b) CMC+0.2 wt %, and the substrate binding characteristic of LeuT was measured by scintillation proximity assay (SPA) using [^3H]-Leu. […]
Specifically, wild type LeuT derived from Aquifex aeolicus which is a thermophilic bacterium was purified according to the method described in the paper (Nature 1998, 392, 353-358) written by G. Deckert et al. LeuT was expressed in E. coli C41 (DE3) transformed with pET16b encoding a C-terminal 8×His-tagged transporter (an expression plasmid was provided by Dr. E. Gouaux (Vollum Institute, Portland, Oreg., USA)). […] The protein samples were stored at room temperature for 10 days and centrifuged at designated time points, and protein characteristics were determined by measuring the binding capacity of [^3H]-Leucine using SPA. […]

CMC [1] [µM]	CMC (wt %) [1] [wt %]	Rh (nm), hydrodynamic radius of micelles [2] [nm]	maintaining the ligand binding characteristic of the receptor compared to DDM [3]	SMILES	LeuT stabilization as concentration of compound increased ([4]; CMC+0.04 wt % versus CMC+0.2 wt %)	effect of maintaining the substrate binding characteristic of LeuT ([4]; CMC+0.2 wt %, 10 days at room temperature)	ability to maintain the ligand binding of the receptor over time compared to DDM ([3]; 2 days at room temperature, early stage (0 to 12 h))
~10	~0.025	2.8 ± 0.1	inferior to DDM	CCCCCCC[C@H]1c2cc(c(OCCO[C@@H]3OC(CO)[C@@H](O)[C@H](O)C3O)cc2OCCO[C@@H]2OC(CO)[C@@H](O)[C@H](O)C2O)[C@H](CCCCCCC)c2cc(c(OCCO[C@@H]3OC(CO)[C@@H](O)[C@H](O)C3O)cc2OCCO[C@@H]2OC(CO)[C@@H](O)[C@H](O)C2O)[C@@H](CCCCCCC)c2cc(c(OCCO[C@@H]3OC(CO)[C@@H](O)[C@H](O)C3O)cc2OCCO[C@@H]2OC(CO)[C@@H](O)[C@H](O)C2O)[C@@H](CCCCCCC)c2cc1c(OCCO[C@@H]1OC(CO)[C@@H](O)[C@H](O)C1O)cc2OCCO[C@@H]1OC(CO)[C@@H](O)[C@H](O)C1O (some centres unmarked) [RGA-C8]	enhanced effect as concentration increased	highest effect of maintaining the substrate binding characteristic of LeuT	–
~5	~0.013	3.5 ± 0.2	–	CCCCCCCCC[C@H]1c2cc(c(OCCO[C@@H]3OC(CO)[C@@H](O)[C@H](O)C3O)cc2OCCO[C@@H]2OC(CO)[C@@H](O)[C@H](O)C2O)[C@H](CCCCCCCCC)c2cc(c(OCCO[C@@H]3OC(CO)[C@@H](O)[C@H](O)C3O)cc2OCCO[C@@H]2OC(CO)[C@@H](O)[C@H](O)C2O)[C@@H](CCCCCCCCC)c2cc(c(OCCO[C@@H]3OC(CO)[C@@H](O)[C@H](O)C3O)cc2OCCO[C@@H]2OC(CO)[C@@H](O)[C@H](O)C2O)[C@@H](CCCCCCCCC)c2cc1c(OCCO[C@@H]1OC(CO)[C@@H](O)[C@H](O)C1O)cc2OCCO[C@@H]1OC(CO)[C@@H](O)[C@H](O)C1O (some centres unmarked) [RGA-C10]	–	–	–
~2.5	~0.0069	3.0 ± 0.2	superior to DDM	CCCCCCCCCCC[C@H]1c2cc(c(OCCO[C@@H]3OC(CO)[C@@H](O)[C@H](O)C3O)cc2OCCO[C@@H]2OC(CO)[C@@H](O)[C@H](O)C2O)[C@H](CCCCCCCCCCC)c2cc(c(OCCO[C@@H]3OC(CO)[C@@H](O)[C@H](O)C3O)cc2OCCO[C@@H]2OC(CO)[C@@H](O)[C@H](O)C2O)[C@@H](CCCCCCCCCCC)c2cc(c(OCCO[C@@H]3OC(CO)[C@@H](O)[C@H](O)C3O)cc2OCCO[C@@H]2OC(CO)[C@@H](O)[C@H](O)C2O)[C@@H](CCCCCCCCCCC)c2cc1c(OCCO[C@@H]1OC(CO)[C@@H](O)[C@H](O)C1O)cc2OCCO[C@@H]1OC(CO)[C@@H](O)[C@H](O)C1O (some centres unmarked) [RGA-C12]	–	–	inferior ability to maintain the ligand binding of the receptor compared to DDM

Reference: patent publication US10793589B2, “Resorcinarene-based amphipathic compound and use thereof” (Industry-University Cooperation Foundation Hanyang …, priority 2016, dated 2020)
